Assay results reported in PubChem BioAssay AID1963863 (Molecular Pharmacology Branch, DTP, NCI, 2024).

Test system: 931267-113-T-J1-PDC KRAS spheroid with HUVEC/MSC, viability
Experiment: Anticancer human tumor 931267-113-T-J1-PDC patient-derived colon adenocarcinoma cell line growth inhibition [KRAS2]
Conditions: for IC50: curve of first compound; for viability, T/C: stronger effect = lower value
How it was run: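 KRAS-mutant tumor cells were grown as spheroids with HUVEC endothelial cells and human MSCs as stroma. Targeted agents were tested alone and with KRAS pathway inhibitors. Doses started at or near clinical Cmax, or 10 microM, descending half-log.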

[1] = second compound 0.1 µM, first compound 0.0316 µM
[2] = second compound 0.1 µM, first compound 0.1 µM
[3] = second compound 0.1 µM, first compound 0.316 µM
[4] = second compound 0.1 µM, first compound 1 µM
[5] = second compound 0.1 µM, first compound 3.16 µM
[6] = second compound 0.1 µM, first compound 10 µM
[7] = second compound 0.316 µM, first compound 0.0316 µM
[8] = second compound 0.316 µM, first compound 0.1 µM
[9] = second compound 0.316 µM, first compound 0.316 µM
[10] = second compound 0.316 µM, first compound 1 µM
[11] = second compound 0.316 µM, first compound 3.16 µM
[12] = second compound 0.316 µM, first compound 10 µM
[13] = second compound 1 µM, first compound 0.0316 µM
[14] = second compound 1 µM, first compound 0.1 µM
[15] = second compound 1 µM, first compound 0.316 µM
[16] = second compound 1 µM, first compound 1 µM
[17] = second compound 1 µM, first compound 3.16 µM
[18] = second compound 1 µM, first compound 10 µM
[19] = second compound 3.16 µM, first compound 0.0316 µM
[20] = second compound 3.16 µM, first compound 0.1 µM
[21] = second compound 3.16 µM, first compound 0.316 µM
[22] = second compound 3.16 µM, first compound 1 µM
[23] = second compound 3.16 µM, first compound 3.16 µM
[24] = second compound 3.16 µM, first compound 10 µM
[25] = second compound 10 µM, first compound 0.0316 µM
[26] = second compound 10 µM, first compound 0.1 µM
[27] = second compound 10 µM, first compound 0.316 µM
[28] = second compound 10 µM, first compound 1 µM
[29] = second compound 10 µM, first compound 3.16 µM
[30] = second compound 10 µM, first compound 10 µM
[31] = second compound 0.1 µM, first compound 0.01 µM
[32] = second compound 0.316 µM, first compound 0.01 µM
[33] = second compound 1 µM, first compound 0.01 µM
[34] = second compound 3.16 µM, first compound 0.01 µM
[35] = second compound 10 µM, first compound 0.01 µM
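Further: compound exposure lasted 7 days before the readout.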
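Wherever viability, T/C is given: 100% = DMSO vehicle control viability.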

Row | SMILES | IC50 (second compound 0.1 µM) | IC50 (second compound 0.316 µM) | IC50 (second compound 1 µM) | IC50 (second compound 3.16 µM) | IC50 (second compound 10 µM) | viability, T/C [1] | viability, T/C [2] | viability, T/C [3] | viability, T/C [4] | viability, T/C [7] | viability, T/C [8] | viability, T/C [9] | viability, T/C [10] | viability, T/C [13] | viability, T/C [14] | viability, T/C [15] | viability, T/C [16] | viability, T/C [19] | viability, T/C [20] | viability, T/C [21] | further results
1 | CC(C)NCC(C(=O)N1CCN(c2ncnc3c2C(C)CC3O)CC1)c1ccc(Cl)cc1 (stereo not given) + CC1OCC2(CCN(c3cnc(Sc4ccnc(N)c4Cl)c(N)n3)CC2)C1N | 3560 nM | 3720 nM | 5160 nM | 1850 nM | 2270 nM | 78.8% | 71.7% | 87% | 64.4% | 86.4% | 73.5% | 81.7% | 75.2% | 95% | 56.9% | 75.5% | 59.4% | 78.2% | 77.3% | 74.4% | viability, T/C [5]: 53.3%; viability, T/C [6]: 37.3%; viability, T/C [11]: 53%; viability, T/C [12]: 32.2%; viability, T/C [17]: 63.7%; viability, T/C [18]: 39%; viability, T/C [22]: 56.3%; viability, T/C [23]: 44.6%; viability, T/C [24]: 35%; viability, T/C [25]: 73.8%; viability, T/C [26]: 67.9%; viability, T/C [27]: 76.7%; viability, T/C [28]: 52.8%; viability, T/C [29]: 48.8%; viability, T/C [30]: 22.5%
2 | CC1COCCN1c1cc(-c2ccnn2C)c2ccnc(-c3ccn[nH]3)c2n1 (stereo not given) + CC1OCC2(CCN(c3cnc(Sc4ccnc(N)c4Cl)c(N)n3)CC2)C1N | 42.4 nM | 45.3 nM | 44.3 nM | 33.2 nM | 59.9 nM | 57.3% | 28.9% | 16.6% | 16.9% | 63.4% | 20.6% | 15.6% | 19% | 58.5% | 29.6% | 18.1% | 18.5% | 50.4% | 29.3% | 16.1% | viability, T/C [31]: 92.3%; viability, T/C [5]: 19.5%; viability, T/C [32]: 81.2%; viability, T/C [11]: 18.6%; viability, T/C [33]: 91.1%; viability, T/C [17]: 13.6%; viability, T/C [34]: 80.6%; viability, T/C [22]: 15.4%; viability, T/C [23]: 18.4%; viability, T/C [35]: 86.9%; viability, T/C [25]: 80.5%; viability, T/C [26]: 25.6%; viability, T/C [27]: 14.4%; viability, T/C [28]: 13.9%; viability, T/C [29]: 15.6%
3 | CCN1CCN(Cc2ccc(Nc3ncc(F)c(-c4cc(F)c5nc(C)n(C(C)C)c5c4)n3)nc2)CC1 + CC1OCC2(CCN(c3cnc(Sc4ccnc(N)c4Cl)c(N)n3)CC2)C1N | 27.3 nM | 32.8 nM | 41.2 nM | 68.8 nM | 201 nM | 43.5% | 51.4% | 53.7% | 36.9% | 50.3% | 43.3% | 45.1% | 37.5% | 53.1% | 41.4% | 42% | 35.3% | 54.4% | 43.6% | 40.8% | viability, T/C (second compound 0.1 µM, first compound 0.00316 µM): 75.4%; viability, T/C [31]: 58.2%; viability, T/C (second compound 0.316 µM, first compound 0.00316 µM): 63%; viability, T/C [32]: 91.7%; viability, T/C (second compound 1 µM, first compound 0.00316 µM): 69.5%; viability, T/C [33]: 82%; viability, T/C (second compound 3.16 µM, first compound 0.00316 µM): 71.5%; viability, T/C [34]: 70.2%; viability, T/C [22]: 23.8%; viability, T/C (second compound 10 µM, first compound 0.00316 µM): 70.6%; viability, T/C [35]: 79.1%; viability, T/C [25]: 52.9%; viability, T/C [26]: 58.7%; viability, T/C [27]: 49%; viability, T/C [28]: 9.83%
4 | CCNC(=O)CC1N=C(c2ccc(Cl)cc2)c2cc(OC)ccc2-n2c(C)nnc21 (stereo not given) + CC1OCC2(CCN(c3cnc(Sc4ccnc(N)c4Cl)c(N)n3)CC2)C1N | 536 nM | 316 nM | 468 nM | 586 nM | 563 nM | 80.7% | 90.4% | 51.9% | 46.6% | 80.4% | 60.5% | 58.7% | 27.4% | 69.7% | 68.5% | 51.5% | 40.7% | 78.1% | 59.7% | 70.8% | viability, T/C [5]: 30.4%; viability, T/C [6]: 27.6%; viability, T/C [11]: 34.6%; viability, T/C [12]: 21.6%; viability, T/C [17]: 31%; viability, T/C [18]: 15.8%; viability, T/C [22]: 33%; viability, T/C [23]: 22.1%; viability, T/C [24]: 13.4%; viability, T/C [25]: 87.2%; viability, T/C [26]: 73.4%; viability, T/C [27]: 60.3%; viability, T/C [28]: 40.5%; viability, T/C [29]: 25.8%; viability, T/C [30]: 14.2%
5 | Cn1nccc1Nc1nccc(-c2cc3c(s2)C(C)(C)N(CCN2CCOCC2)C3=O)n1 + CC1OCC2(CCN(c3cnc(Sc4ccnc(N)c4Cl)c(N)n3)CC2)C1N | 362 nM | 317 nM | 203 nM | 218 nM | 275 nM | 79.4% | 86.3% | 48.3% | 25.2% | 70.6% | 76.3% | 46% | 22.8% | 72.8% | 55.5% | 47.5% | 18.1% | 76.4% | 60.6% | 45.8% | viability, T/C [5]: 7.4%; viability, T/C [6]: 2.95%; viability, T/C [11]: 4.01%; viability, T/C [12]: 2.65%; viability, T/C [17]: 4.05%; viability, T/C [18]: 2.39%; viability, T/C [22]: 8.81%; viability, T/C [23]: 4.98%; viability, T/C [24]: 2.71%; viability, T/C [25]: 72.4%; viability, T/C [26]: 71.6%; viability, T/C [27]: 47%; viability, T/C [28]: 3.56%; viability, T/C [29]: 2.05%; viability, T/C [30]: 2.15%
6 | CC(=O)OC12COC1CC(O)C1(C)C(=O)C(O)C3=C(C)C(OC(=O)C(O)C(NC(=O)OC(C)(C)C)c4ccccc4)CC(O)(C(OC(=O)c4ccccc4)C21)C3(C)C (stereo not given) + CNCc1ccccc1-c1csc(C(C)Nc2nc(C)nc3cc(OC)c(OC)cc23)c1 | > 3160 nM | > 3160 nM | > 3160 nM | < 10 nM | < 10 nM | 99.3% | 109% | 98.9% | 82% | 110% | 89.7% | 96.4% | 101% | 105% | 91.3% | 111% | 89.7% | 102% | 0.55% | 0.5% | viability, T/C [31]: 88.2%; viability, T/C [5]: 87.8%; viability, T/C [32]: 109%; viability, T/C [11]: 113%; viability, T/C [33]: 106%; viability, T/C [17]: 77.4%; viability, T/C [34]: 0.73%; viability, T/C [22]: 0.41%; viability, T/C [23]: 105%; viability, T/C [35]: 0.33%; viability, T/C [25]: 0.34%; viability, T/C [26]: 0.31%; viability, T/C [27]: 0.36%; viability, T/C [28]: 0.18%; viability, T/C [29]: 0.93%
